Results on two compounds are retold here after patent publication US20180147767A1, “METHODS OF EXTRUDING MULTILAYER FIBERS” (THE BOARD OF TRUSTEES OF UNIVERSITY OF ILLINOIS, priority 2015, published 2018).

Experiment [1] has as its system RAW 264.7 mouse macrophage cells and MDA-MB-231 human adenocarcinoma cells. The experiment is described as follows: Co-localization and migration of macrophages and tumor cells co-cultured in multilayer alginate fibers (CellTracker confocal imaging, Pearson correlation factor, Coloc2). It counts as cell-based. The note with it: for calculated correlation factor (Pearson): Day 4, drug at approximate IC50: 50 μM for ZA and Rac1, 50 nM for GEF; for migration and co-localization of macrophages with tumor cells: co-cultured fibers, four days of incubation, FIG. 6a. The source says: Using CellTracker™-labeling and confocal fluorescence microscopy to quantify the co-localization of the tumor cells and macrophages in co-culture over time (FIG. 8). To calculate correlation factor, ImageJ Fiji with the Coloc2 plugin may be utilized. The images are split into separate channels for macrophages (a) and breast cancer (b) cells and despeckled to remove noise.

Experiment [2] has the same test system. The experiment in a line: Macrophage to tumor cell volume ratio per fiber (3D stack counting). As to conditions: Day 4, compared to the other samples.
Excerpt: CellTracker Green CM FDA dye and CellTracker CM-Dil dye (Life Technologies) were used to label RAW and 231 cells respectively according to manufacturer's instructions. Labeled 231 cells were dispersed in the alginate solution at a concentration of 5×10^6 cells/mL. Labeled RAW cells were dispersed in CaCl2 solution at a concentration of 4.5×10^7 cells/mL. After fiber generation, fibers were cut into approximately 20 mm sections and stored in 24-well cell culture plates containing media and pharmacological drugs. […] A vehicle control of 2% DMSO in cell culture media was also used. The cells were incubated at 37° C., 5% CO2 environment, with media changes every 2 days.
For experiment [3] the following is noted: read-out: approximate IC50; cited from earlier work.

On to `COc1cc2ncnc(Nc3ccc(F)c(Cl)c3)c2cc1OCCCN1CCOCC1` [GEF, Gefitinib], for which, in experiment [1], the “calculated correlation factor (Pearson)” value is listed as “decreases”; the “migration and co-localization of macrophages with tumor cells” value was “distinct impairment of migration and co-localization”.

In the case of `Cc1ccc(NC(=O)c2cccc(OCc3c(C)noc3C)c2)cc1S(N)(=O)=O` [RAC, Rac1 Inhibitor II], in experiment [1], the “calculated correlation factor (Pearson)” value was “decreases”; the “migration and co-localization of macrophages with tumor cells” value was “distinct impairment of migration and co-localization”. In experiment [1] (listed as inhibitor of Rac1), the “calculated correlation factor (Pearson)” value is reported as “return to anti-correlation comparable to initial seeding (Day 0)”. Besides, the “inhibition of migration and co-localization (TC-Mϕ correlation compared to TC/Mϕ ratio)” value in experiment [1] (FIG. 7b, straight and patterned fibers) is “highest inhibition of migration and co-localization”. In addition, in experiment [2], the TC/Mϕ ratio entry is on record as “significantly higher”. Further, the IC50 (as a rule, the concentration that inhibits the measured activity by half) in experiment [3] was about 50 µM.
